Like-named read-outs stand apart in the source and are kept apart here.
What was measured:
[1] = target: T1, human dopamine transporter/SLC6A3 (DAT) (Homo sapiens, UniProt Q01959); experiment: Cellular uptake experiments: [3H]-dopamine reuptake inhibition in transporter-expressing HEK293 cells; type: cell-based; settings: Reuptake Inhibition (IC50 ± SE, µM) DAT, cells stably expressing DAT; [3H]-dopamine 1 µM; screening cut-off 50 µM
T1 construct: expressed in transfected cells; host or cells: HEK293
T1 sequence (Q01959 whole entry): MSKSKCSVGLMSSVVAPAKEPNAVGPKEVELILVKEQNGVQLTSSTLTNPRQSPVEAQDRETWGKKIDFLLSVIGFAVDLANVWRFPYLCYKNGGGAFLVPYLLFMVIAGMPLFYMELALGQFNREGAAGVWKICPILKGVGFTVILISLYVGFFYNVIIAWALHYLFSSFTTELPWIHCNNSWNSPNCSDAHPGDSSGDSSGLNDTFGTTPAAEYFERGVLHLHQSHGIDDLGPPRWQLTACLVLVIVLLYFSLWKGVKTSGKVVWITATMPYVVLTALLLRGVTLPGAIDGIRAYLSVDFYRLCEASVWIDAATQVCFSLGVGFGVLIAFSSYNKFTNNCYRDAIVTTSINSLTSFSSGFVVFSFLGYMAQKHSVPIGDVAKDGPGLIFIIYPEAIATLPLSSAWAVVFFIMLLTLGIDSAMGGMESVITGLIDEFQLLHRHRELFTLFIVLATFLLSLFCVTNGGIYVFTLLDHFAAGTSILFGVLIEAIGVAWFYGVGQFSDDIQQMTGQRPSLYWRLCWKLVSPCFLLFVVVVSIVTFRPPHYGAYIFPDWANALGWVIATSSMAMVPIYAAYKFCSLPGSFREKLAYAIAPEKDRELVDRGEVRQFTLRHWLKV
Summary of the method: (§1)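 Stably transfected HEK293 cells preincubated 5 min with compound, then 1 µM [3H]-substrate for 2.5 min (SERT: 5 min) at 25 °C, pH 7.1 buffer; uptake counted by scintillation. Nonspecific uptake defined with 10 µM mazindol (DAT, NET) or 10 µM clomipramine (SERT).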

[2] = target: T2, human serotonin transporter/SLC6A4 (SERT) (Homo sapiens, UniProt P31645); experiment: Cellular uptake experiments: [3H]-serotonin reuptake inhibition in transporter-expressing HEK293 cells; type: cell-based; settings: Reuptake Inhibition (IC50 ± SE, µM) SERT, cells stably expressing SERT; [3H]-serotonin 1 µM; screening cut-off 50 µM
T2 construct: expressed in transfected cells; host or cells: HEK293
T2 sequence (P31645 whole entry): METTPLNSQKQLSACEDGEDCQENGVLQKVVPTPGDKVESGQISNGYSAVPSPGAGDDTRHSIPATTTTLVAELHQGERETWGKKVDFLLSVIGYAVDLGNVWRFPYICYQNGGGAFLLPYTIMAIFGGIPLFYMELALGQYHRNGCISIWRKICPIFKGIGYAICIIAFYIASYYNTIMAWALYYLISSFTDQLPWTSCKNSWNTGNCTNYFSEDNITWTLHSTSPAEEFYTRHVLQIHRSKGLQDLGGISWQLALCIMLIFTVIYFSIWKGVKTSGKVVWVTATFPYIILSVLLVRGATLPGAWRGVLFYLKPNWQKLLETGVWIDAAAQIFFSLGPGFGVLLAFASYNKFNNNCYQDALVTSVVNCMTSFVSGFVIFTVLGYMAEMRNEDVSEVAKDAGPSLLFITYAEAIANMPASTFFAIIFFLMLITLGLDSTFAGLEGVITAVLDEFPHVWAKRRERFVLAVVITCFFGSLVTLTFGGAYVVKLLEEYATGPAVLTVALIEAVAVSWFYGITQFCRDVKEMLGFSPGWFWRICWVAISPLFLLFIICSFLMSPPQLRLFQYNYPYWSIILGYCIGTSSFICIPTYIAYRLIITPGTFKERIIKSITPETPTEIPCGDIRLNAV
Summary of the method: as §1

human NET = target: T3, human NET (Homo sapiens, UniProt P23975); experiment: Radioligand binding assay, [3H]nisoxetine, CHO cells (Eurofins Cerep); settings: human NET expressed in CHO cells; read-out: Ki, binding sites of the NET (against [3H]nisoxetine)
T3 construct: host or cells: CHO
T3 sequence (P23975 whole entry): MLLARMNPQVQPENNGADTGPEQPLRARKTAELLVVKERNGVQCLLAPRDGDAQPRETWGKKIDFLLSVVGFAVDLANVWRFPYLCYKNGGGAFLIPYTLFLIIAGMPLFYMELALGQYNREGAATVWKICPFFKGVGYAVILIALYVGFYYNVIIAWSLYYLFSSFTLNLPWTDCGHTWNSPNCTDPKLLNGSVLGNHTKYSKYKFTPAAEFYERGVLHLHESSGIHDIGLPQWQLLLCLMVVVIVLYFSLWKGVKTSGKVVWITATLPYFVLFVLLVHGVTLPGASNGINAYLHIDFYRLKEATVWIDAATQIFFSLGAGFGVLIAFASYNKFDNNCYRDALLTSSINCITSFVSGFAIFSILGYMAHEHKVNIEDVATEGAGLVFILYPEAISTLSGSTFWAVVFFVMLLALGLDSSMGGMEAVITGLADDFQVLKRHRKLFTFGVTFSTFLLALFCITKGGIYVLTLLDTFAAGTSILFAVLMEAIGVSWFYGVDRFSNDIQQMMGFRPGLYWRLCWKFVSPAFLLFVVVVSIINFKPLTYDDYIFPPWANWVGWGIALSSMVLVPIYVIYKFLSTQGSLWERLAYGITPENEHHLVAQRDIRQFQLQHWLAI
Method: (§2) Binding experiments. Binding affinity to the human DAT, SERT, and NET stable proteins expressed in CHO cells was evaluated in in vitro radioligand binding assays. Non-specific binding was determined using [^3H]BTCP, [^3H]imipramine, and ^[3H] nisoxetine for hDAT, hSERT, and hNET, respectively. The IC50 values were calculated by non-linear regression analysis of the competition curves generated from the mean replicate values. The Ki values were calculated using the Cheng–Prusoff equation (Ki = IC50/(1 + […])). Binding assays were carried out by Eurofins (Cerep SA, Celle l’Evescault, France), Study No. 100053935. For an in-depth description, please refer to the report in the supporting information file.

human SERT = target: T4, human SERT (Homo sapiens, UniProt P31645); experiment: Radioligand binding assay, [3H]imipramine, CHO cells (Eurofins Cerep); settings: human SERT expressed in CHO cells; read-out: Ki, binding sites of the SERT (against [3H]imipramine)
T4 construct: host or cells: CHO
T4 sequence (P31645 whole entry): as the sequence (P31645 whole entry) above
Method: as §2

rat cortical neurons = experiment: Neurite outgrowth assay (Cyprotex); type: cell-based; settings: for IC50: Rattus norvegicus, Cortical neurone, 72 h; for window between neurite outgrowth effect concentration and active concentration: effect at 100 µM compared to the active concentration; for effect on valid neuron count, mean neurite average length and neurite total length per neuron: only at 100 µM (top concentration tested); for effect on neurite outgrowth in relation to effect on cell viability: rat cortical neurons; for cell-toxic effects: up to a concentration of 50 µM
Method: Neurite outgrowth assay. […] were carried out by Cyprotex (an Evotec Company, Toulouse, France), Study No. CYP2052-R1. For an in-depth description, please refer to the report in the supporting information files. Cryo-preserved rat cortical neurons (QBM Cell Science, R-Cx-500) were quickly thawed and slowly diluted with neurobasal medium supplemented with L-glutamine (Invitrogen, Cat. No. 25030-081), penicillin-streptomycin (Invitrogen, Cat. No. 15140-122), and B27 (NB/B27 medium, Invitrogen, Cat. No. 17504-044). After a gentle centrifugation step, the neurons were resuspended in NB/B27 medium at a density of 4.0 × 10^6 cells/mL. One hour prior to treatment, the neurons were plated in 384-well plates (Corning 354663) pre-coated with a laminin solution (Sigma L2020 1 mg/mL) at a density of 10,000 cells per well. After treatment with test articles and control compounds, the neurons were maintained in a humidified environment at 37 °C with 5% CO2 for 72 h. At the end of the treatment period, the neurons were fixed for 1 h with a 3.7% formaldehyde solution (Acros Organics, 41073-0010). The neurons were washed with phosphate buffered saline (PBS) (SH30264.02) and permeabilized for 10 min with a 0.5% solution of Triton X-100 (Millipore Sigma, X100). After another wash step, the neurons were stained for one hour with Hoechst 33342 (ThermoFisher Scientific, H3570) and the anti-beta III tubulin antibody, Alexa Fluor® 488 conjugate (Millipore Sigma AB15708A4), diluted in a blocking buffer solution (Thermo Scientific, 37525). Upon completion of the staining step, the neurons were washed again, and the plates were sealed in preparation for the imaging process. The neurons were evaluated for neurite outgrowth and cell health using the high-content imaging platform, ArrayScan VTi (Thermo Scientific ArrayScan VTi), with an optimized neuronal profiling bio-application.
This assay assessed cell health and neurite outgrowth utilizing a neuronal profiling bio-application applied to images obtained on an ArrayScan VTi. Valid neuron count, mean neurite average length, and neurite total length per neuron were determined and reported. Raw data were normalized to the vehicle control and reported as a normalized% response. Dose response graphs were generated with GraphPad Prism using a sigmoidal dose-response (variable slope) algorithm.

[3] = Compound brain levels after intraperitoneal injection; type: in vivo; settings: single intraperitoneal injection, 10 mg/kg, Sprague–Dawley rats
Method: Compound brain levels. For an in-depth description of the brain and blood at 7h, we refer to the protocol of Evotec (France, Study No. DMPK-2020-494) in the supplementary information file.

[4] = read-out: Mean Neurite Avg. Length IC50, rat cortical neurons, 72 h
[5] = read-out: Neurite Total Length per Neuron IC50, rat cortical neurons, 72 h
[6] = read-out: Valid Neuron Count IC50, rat cortical neurons, 72 h

Compound	IC50 [1]	IC50 [2]	Ki (human NET)	Ki (human SERT)	IC50 (rat cortical neurons; [4])	IC50 (rat cortical neurons; [5])	IC50 (rat cortical neurons; [6])	window between neurite outgrowth effect concentration and active concentration (rat cortical neurons)	effect on valid neuron count, mean neurite average length and neurite total length per neuron (rat cortical neurons)	effect on neurite outgrowth in relation to effect on cell viability (rat cortical neurons)	cell-toxic effects (rat cortical neurons)	Cmax ([3]; rat, brain, ip)	half-life ([3]; rat, brain, ip)	Tmax ([3]; rat, brain, ip, read-out: median Tmax in the brain)	detectable in brain post-administration [3]
[O-][S@+](Cc1cccs1)[C@H](c1ccccc1)c1cccc(Br)c1 [Compound 8h, (R,R)-2-((((3-bromophenyl)(phenyl)methyl)sulfinyl)methyl)thiophene]	0.3 ± 0.03 µM	14 ± 3 µM	> 10 µM	> 10 µM	75.2 µM	72.2 µM	94.6 µM	more than 100 fold	significant decreases	not independent of their effect on cell viability	absence of cell-toxic effects				
[O-][S@@+](Cc1cccs1)[C@@H](c1ccccc1)c1cccc(Br)c1 [Compound 7h, (S,S)-2-((((3-bromophenyl)(phenyl)methyl)sulfinyl)methyl)thiophene]	0.48 ± 0.11 µM	> 50 µM	> 10 µM	> 10 µM	65.8 µM	59.8 µM	92.2 µM	more than 100 fold	significant decreases	not independent of their effect on cell viability	absence of cell-toxic effects	478 ng/g	3 h	1 h	up to 10 h

Reference: paper PMC10527105, “Chirality Matters: Fine-Tuning of Novel Monoamine Reuptake Inhibitors Selectivity through Manipulation of Stereochemistry” (Biomolecules, 2023)
